Laboratory results from PMC5218480 (PLoS ONE, 2017).

Tested on: MV-4-11 cells
Test: Gene expression microarray analysis (Affymetrix PrimeView) and GSEA
Type: cell-based, human
Parameters: RFU PODN (11730768_x_at) / Fold change /veh PODN (11730768_x_at) / RFU LINC00158 (11744669_a_at) / Fold change /veh LINC00158 (11744669_a_at) / RFU DUSP10 (11751237_a_at) / Fold change /veh DUSP10 (11751237_a_at) / RFU ID3 (11757404_x_at) / Fold change /veh ID3 (11757404_x_at) / RFU PLEKHG5 (11737974_s_at) / Fold change /veh PLEKHG5 (11737974_s_at) / RFU LRRC4B (11730491_at) / Fold change /veh LRRC4B (11730491_at) / RFU GIMAP4 (11747438_a_at) / Fold change /veh GIMAP4 (11747438_a_at) / RFU KRT8 (11758183_x_at) / Fold change /veh KRT8 (11758183_x_at) / RFU CNN1 (11734310_a_at) / Fold change /veh CNN1 (11734310_a_at) / RFU VPS37D (11726825_at) / Fold change /veh VPS37D (11726825_at) / RFU C10orf10 (11716522_x_at) / Fold change /veh C10orf10 (11716522_x_at) / RFU KIR2DL2 /// KIR2DL4 /// KIR2DL5A /// KIR2DL5B /// KIR2DS1 /// KIR2DS2 /// KIR2DS3 /// KIR2DS4 /// KIR3DL3 /// KIR3DL3 /// KIR3DS1 (11738374_at) / Fold change /veh KIR2DL2 /// KIR2DL4 /// KIR2DL5A /// KIR2DL5B /// KIR2DS1 /// KIR2DS2 /// KIR2DS3 /// KIR2DS4 /// KIR3DL3 /// KIR3DL3 /// KIR3DS1 (11738374_at) / RFU C1QL1 (11718748_at) / Fold change /veh C1QL1 (11718748_at) / RFU TMPRSS4 (11747572_a_at) / Fold change /veh TMPRSS4 (11747572_a_at) / RFU HAMP (11756126_x_at) / Fold change /veh HAMP (11756126_x_at) / RFU RNFT2 (11725882_a_at) / Fold change /veh RNFT2 (11725882_a_at) / RFU NR4A2 (11747474_a_at) / Fold change /veh NR4A2 (11747474_a_at) / RFU ABCC12 (11746883_a_at) / Fold change /veh ABCC12 (11746883_a_at) / RFU TMEM136 (11760407_x_at) / Fold change /veh TMEM136 (11760407_x_at) / RFU CLDN22 /// WWC2 (11732394_at) / Fold change /veh CLDN22 /// WWC2 (11732394_at) / RFU HLA-DPB1 (11760878_x_at) / Fold change /veh HLA-DPB1 (11760878_x_at) / RFU SPINT1 (11716480_a_at) / Fold change /veh SPINT1 (11716480_a_at) / RFU GAP43 (11754022_s_at) / Fold change /veh GAP43 (11754022_s_at) / RFU A4GNT (11735810_at) / Fold change /veh A4GNT (11735810_at) / RFU PRB3 (11715151_x_at) / Fold change /veh PRB3 (11715151_x_at) / RFU TUBB4B (11761932_at) / Fold change /veh TUBB4B (11761932_at) / RFU CAPN14 (11732068_a_at) / Fold change /veh CAPN14 (11732068_a_at) / RFU TMCC2 (11721928_a_at) / Fold change /veh TMCC2 (11721928_a_at) / RFU IRGQ (11745062_a_at) / Fold change /veh IRGQ (11745062_a_at) / RFU FAM174B (11720279_a_at) / Fold change /veh FAM174B (11720279_a_at) / RFU TMPRSS4 (11748680_a_at) / Fold change /veh TMPRSS4 (11748680_a_at) / RFU FAM212B (11763350_a_at) / Fold change /veh FAM212B (11763350_a_at) / RFU PLEKHG5 (11743358_a_at) / Fold change /veh PLEKHG5 (11743358_a_at) / RFU ZSCAN30 (11745921_a_at) / Fold change /veh ZSCAN30 (11745921_a_at) / RFU CMKLR1 (11741424_a_at) / Fold change /veh CMKLR1 (11741424_a_at) / RFU LOC101060620 /// MAPK8IP1 (11723275_at) / Fold change /veh LOC101060620 /// MAPK8IP1 (11723275_at) / RFU SPTSSB (11747773_x_at) / Fold change /veh SPTSSB (11747773_x_at) / RFU PRSS12 (11739890_at) / Fold change /veh PRSS12 (11739890_at) / RFU BIN1 (11741810_x_at) / Fold change /veh BIN1 (11741810_x_at) / RFU WNT11 (11732464_a_at) / Fold change /veh WNT11 (11732464_a_at) / RFU C10orf10 (11716521_a_at) / Fold change /veh C10orf10 (11716521_a_at) / RFU C5orf56 (11738089_at) / Fold change /veh C5orf56 (11738089_at) / RFU CYB561 (11721691_x_at) / Fold change /veh CYB561 (11721691_x_at) / RFU ANKRD19P (11752326_a_at) / Fold change /veh ANKRD19P (11752326_a_at) / RFU OR2T12 /// OR2T33 /// OR2T8 (11738714_s_at) / Fold change /veh OR2T12 /// OR2T33 /// OR2T8 (11738714_s_at) / RFU VCAN (11748164_a_at) / Fold change /veh VCAN (11748164_a_at) / RFU JSRP1 (11732532_at) / Fold change /veh JSRP1 (11732532_at) / RFU KRTAP10-11 (11738290_x_at) / Fold change /veh KRTAP10-11 (11738290_x_at) / RFU MYO3A (11730013_a_at) / Fold change /veh MYO3A (11730013_a_at) / RFU EBF3 (11725865_a_at) / Fold change /veh EBF3 (11725865_a_at) / RFU CAMK2N1 (11719241_x_at) / Fold change /veh CAMK2N1 (11719241_x_at) / RFU C5orf56 (11738088_a_at) / Fold change /veh C5orf56 (11738088_a_at) / RFU OLFML3 (11715873_a_at) / Fold change /veh OLFML3 (11715873_a_at) / RFU LOC100653217 /// NTM (11731650_a_at) / Fold change /veh LOC100653217 /// NTM (11731650_a_at) / RFU MAPK11 (11762145_a_at) / Fold change /veh MAPK11 (11762145_a_at) / RFU FIZ1 (11724087_x_at) / Fold change /veh FIZ1 (11724087_x_at) / RFU OASL (11726364_x_at) / Fold change /veh OASL (11726364_x_at) / RFU SOX15 (11748057_x_at) / Fold change /veh SOX15 (11748057_x_at) / RFU CD79A (11719716_a_at) / Fold change /veh CD79A (11719716_a_at) / RFU HIST1H1D (11736915_at) / Fold change /veh HIST1H1D (11736915_at) / RFU CASKIN2 (11723855_a_at) / Fold change /veh CASKIN2 (11723855_a_at) / RFU LOC730098 (11760151_x_at) / Fold change /veh LOC730098 (11760151_x_at) / RFU OR4N2 (11742367_at) / Fold change /veh OR4N2 (11742367_at) / RFU PRRT2 (11749266_a_at) / Fold change /veh PRRT2 (11749266_a_at) / RFU SNX32 (11753110_a_at) / Fold change /veh SNX32 (11753110_a_at) / RFU CDHR5 (11726645_a_at) / Fold change /veh CDHR5 (11726645_a_at) / RFU RCAN1 (11760418_a_at) / Fold change /veh RCAN1 (11760418_a_at) / RFU FAM167A (11723789_a_at) / Fold change /veh FAM167A (11723789_a_at) / RFU FAM26E (11764081_at) / Fold change /veh FAM26E (11764081_at) / RFU ISYNA1 (11749810_s_at) / Fold change /veh ISYNA1 (11749810_s_at) / RFU ACY1 (11761880_at) / Fold change /veh ACY1 (11761880_at) / RFU 11764098_at / Fold change /veh 11764098_at / RFU SAMD14 (11745864_x_at) / Fold change /veh SAMD14 (11745864_x_at) / RFU NPB (11741838_a_at) / Fold change /veh NPB (11741838_a_at) / RFU TMPRSS6 (11731388_a_at) / Fold change /veh TMPRSS6 (11731388_a_at) / RFU KRTAP10-2 (11738614_at) / Fold change /veh KRTAP10-2 (11738614_at) / RFU ARHGAP8 /// PRR5-ARHGAP8 (11727945_x_at) / Fold change /veh ARHGAP8 /// PRR5-ARHGAP8 (11727945_x_at) / RFU KRTAP5-7 /// NADSYN1 (11734609_at) / Fold change /veh KRTAP5-7 /// NADSYN1 (11734609_at) / RFU RASL12 (11751679_a_at) / Fold change /veh RASL12 (11751679_a_at) / RFU CDKN2B (11736163_a_at) / Fold change /veh CDKN2B (11736163_a_at) / RFU PRF1 (11729649_at) / Fold change /veh PRF1 (11729649_at) / RFU, ZNF638 /// ZNF638-IT1 / Fold change vs veh, ZNF638 /// ZNF638-IT1 / RFU, PANK3 / Fold change vs veh, PANK3 / RFU, SH3YL1 / Fold change vs veh, SH3YL1 / RFU, ZEB2 / Fold change vs veh, ZEB2 / RFU, NRIP1 / Fold change vs veh, NRIP1 / RFU, PTTG1IP / Fold change vs veh, PTTG1IP / RFU, CAPN2 / Fold change vs veh, CAPN2 / RFU, MED14 / Fold change vs veh, MED14 / RFU, SNORA58 / Fold change vs veh, SNORA58 / RFU, C1orf63 / Fold change vs veh, C1orf63 / RFU, LRRFIP1 / Fold change vs veh, LRRFIP1 / RFU, NDUFAF7 / Fold change vs veh, NDUFAF7 / RFU, SLC12A2 / Fold change vs veh, SLC12A2 / RFU, IBTK / Fold change vs veh, IBTK / RFU, ESF1 / Fold change vs veh, ESF1 / Fold change vs veh, TMEM50B / RFU, TAOK1 / Fold change vs veh, TAOK1 / RFU, ACBD3 / Fold change vs veh, ACBD3 / RFU, TMA16 / Fold change vs veh, TMA16 / RFU, RWDD3 / Fold change vs veh, RWDD3 / RFU, BCAT1 / Fold change vs veh, BCAT1 / RFU, EDEM3 / Fold change vs veh, EDEM3 / RFU, TMEM33 / Fold change vs veh, TMEM33 / RFU, WDR75 / Fold change vs veh, WDR75 / RFU, AHCTF1 / Fold change vs veh, AHCTF1 / RFU, TFRC / Fold change vs veh, TFRC / RFU, ZDHHC17 / Fold change vs veh, ZDHHC17 / RFU, NOM1 / Fold change vs veh, NOM1 / RFU, ARL8B / Fold change vs veh, ARL8B / RFU, ZBTB11 / Fold change vs veh, ZBTB11 / RFU, TAMM41 / Fold change vs veh, TAMM41 / RFU, KIAA1704 /// LOC100996395 / Fold change vs veh, KIAA1704 /// LOC100996395 / RFU, ING1 / Fold change vs veh, ING1 / RFU, TRMT61B / Fold change vs veh, TRMT61B / RFU, FUBP3 / Fold change vs veh, FUBP3 / RFU, TP53 / Fold change vs veh, TP53 / RFU, TNKS2 / Fold change vs veh, TNKS2 / RFU, ZFP14 / Fold change vs veh, ZFP14 / RFU, ACTR2 / Fold change vs veh, ACTR2 / RFU, PPP3R1 / Fold change vs veh, PPP3R1 / RFU, PIK3R1 / Fold change vs veh, PIK3R1 / RFU, HNRNPA1 / Fold change vs veh, HNRNPA1 / RFU, RNF170 / Fold change vs veh, RNF170 / RFU, ZNF28 / Fold change vs veh, ZNF28 / RFU, RNGTT / Fold change vs veh, RNGTT / RFU, OGT / Fold change vs veh, OGT / RFU, BRD1 / Fold change vs veh, BRD1 / RFU, MARS / Fold change vs veh, MARS / RFU, ZNF655 / Fold change vs veh, ZNF655 / RFU, FAHD1 / Fold change vs veh, FAHD1 / RFU, BDP1 / Fold change vs veh, BDP1 / RFU, LRRCC1 / Fold change vs veh, LRRCC1 / RFU, ARID1A / Fold change vs veh, ARID1A / RFU, ZNF146 / Fold change vs veh, ZNF146 / RFU, ZNF330 / Fold change vs veh, ZNF330 / RFU, GPN3 / Fold change vs veh, GPN3 / RFU, C9orf123 / Fold change vs veh, C9orf123 / RFU, N4BP2L2 / Fold change vs veh, N4BP2L2 / RFU, ARFIP1 / Fold change vs veh, ARFIP1 / RFU, FAM179B / Fold change vs veh, FAM179B / RFU, BCL10 / Fold change vs veh, BCL10 / RFU, UHRF1BP1L / Fold change vs veh, UHRF1BP1L / RFU, BET1 / Fold change vs veh, BET1 / RFU, CNOT2 / Fold change vs veh, CNOT2 / RFU, ZNF268 / Fold change vs veh, ZNF268 / Fold change vs veh, ZNF507 / RFU, DGCR2 / Fold change vs veh, DGCR2 / RFU, WDSUB1 / Fold change vs veh, WDSUB1 / Fold change vs veh, HSP90B1 /// MIR3652 / RFU, ADSS / Fold change vs veh, ADSS / RFU, GK / Fold change vs veh, GK / RFU, ZNF148 / Fold change vs veh, ZNF148 / RFU, TAF9 / Fold change vs veh, TAF9 / RFU, SLC1A5 / Fold change vs veh, SLC1A5 / RFU, SLMO2 / Fold change vs veh, SLMO2 / RFU, ABCC4 / Fold change vs veh, ABCC4 / RFU, LOC101060439 /// RAP1B / Fold change vs veh, LOC101060439 /// RAP1B / RFU, RFX7 / Fold change vs veh, RFX7 / RFU, GTPBP10 / Fold change vs veh, GTPBP10 / RFU, CNEP1R1 / Fold change vs veh, CNEP1R1 / RFU, BIVM-ERCC5 /// ERCC5 / Fold change vs veh, BIVM-ERCC5 /// ERCC5 / RFU, ILF3 / Fold change vs veh, ILF3 / RFU 11762660_at / Fold change /veh 11762660_at / RFU VCAN (11757783_s_at) / Fold change /veh VCAN (11757783_s_at) / RFU DDX43 (11728927_at) / Fold change /veh DDX43 (11728927_at) / RFU KRT8 (11758188_x_at) / Fold change /veh KRT8 (11758188_x_at) / RFU NKD1 (11759106_at) / Fold change /veh NKD1 (11759106_at) / RFU SRD5A1 (11742802_a_at) / Fold change /veh SRD5A1 (11742802_a_at) / RFU TPSAB1 /// TPSB2 (11721975_s_at) / Fold change /veh TPSAB1 /// TPSB2 (11721975_s_at) / RFU GSTM3 (11746129_a_at) / Fold change /veh GSTM3 (11746129_a_at) / RFU IL23R (11737362_x_at) / Fold change /veh IL23R (11737362_x_at) / RFU TMEM51 (11727254_a_at) / Fold change /veh TMEM51 (11727254_a_at) / RFU PIWIL2 (11732686_x_at) / Fold change /veh PIWIL2 (11732686_x_at) / RFU ORM1 (11744905_x_at) / Fold change /veh ORM1 (11744905_x_at) / RFU CCDC152 (11743942_at) / Fold change /veh CCDC152 (11743942_at) / RFU ECM1 (11717891_a_at) / Fold change /veh ECM1 (11717891_a_at) / RFU IL23R (11748794_a_at) / Fold change /veh IL23R (11748794_a_at) / RFU TNFAIP8L3 (11732012_x_at) / Fold change /veh TNFAIP8L3 (11732012_x_at) / RFU MBOAT4 (11741988_at) / Fold change /veh MBOAT4 (11741988_at) / RFU 11764193_at / Fold change /veh 11764193_at / RFU TMEM53 (11763286_at) / Fold change /veh TMEM53 (11763286_at) / RFU MAGEB2 (11727129_at) / Fold change /veh MAGEB2 (11727129_at) / RFU TMEM200A (11744735_a_at) / Fold change /veh TMEM200A (11744735_a_at) / RFU CCDC152 (11751479_a_at) / Fold change /veh CCDC152 (11751479_a_at) / RFU FAM211A (11726209_a_at) / Fold change /veh FAM211A (11726209_a_at) / RFU RGS16 (11746705_a_at) / Fold change /veh RGS16 (11746705_a_at) / RFU VCAN (11755009_s_at) / Fold change /veh VCAN (11755009_s_at) / RFU RHOB (11743442_s_at) / Fold change /veh RHOB (11743442_s_at) / RFU RGS16 (11720943_a_at) / Fold change /veh RGS16 (11720943_a_at) / RFU RGS16 (11720944_at) / Fold change /veh RGS16 (11720944_at) / RFU, VPS4B / Fold change vs veh, VPS4B / RFU, CREB1 / Fold change vs veh, CREB1 / RFU, DNAJC13 / Fold change vs veh, DNAJC13 / RFU, GNAQ / Fold change vs veh, GNAQ / RFU, CDK5R1 / Fold change vs veh, CDK5R1 / RFU, ZRANB3 / Fold change vs veh, ZRANB3 / RFU, CUL4A / Fold change vs veh, CUL4A / RFU, CCNY / Fold change vs veh, CCNY / RFU, UFL1 / Fold change vs veh, UFL1 / RFU, COG3 / Fold change vs veh, COG3 / RFU, DIAPH2 / Fold change vs veh, DIAPH2 / RFU, SKA2 / Fold change vs veh, SKA2 / RFU, AFF3 / Fold change vs veh, AFF3 / RFU, LMF1 / Fold change vs veh, LMF1 / RFU, IPO11 / Fold change vs veh, IPO11 / RFU, DFFB / Fold change vs veh, DFFB / RFU, FOXP1 / Fold change vs veh, FOXP1 / RFU, CARD8 / Fold change vs veh, CARD8 / RFU, STRN3 / Fold change vs veh, STRN3 / RFU, ADK / Fold change vs veh, ADK / RFU, RASSF2 / Fold change vs veh, RASSF2 / RFU, WIPF1 / Fold change vs veh, WIPF1 / RFU, LARP1B / Fold change vs veh, LARP1B / RFU, RASA1 / Fold change vs veh, RASA1 / RFU, RB1 / Fold change vs veh, RB1 / RFU, PPFIA1 / Fold change vs veh, PPFIA1 / RFU, MAT2A / Fold change vs veh, MAT2A / RFU, CCT5 / Fold change vs veh, CCT5 / RFU, WDR92 / Fold change vs veh, WDR92 / RFU, CUX1 / Fold change vs veh, CUX1 / RFU, TTC7A / Fold change vs veh, TTC7A / RFU, TMEM135 / Fold change vs veh, TMEM135 / RFU, DEPTOR / Fold change vs veh, DEPTOR / RFU, CPM / Fold change vs veh, CPM / RFU, DNAJB6 / Fold change vs veh, DNAJB6 / RFU, CACNA2D3 / Fold change vs veh, CACNA2D3 / RFU, DTX4 / Fold change vs veh, DTX4 / RFU, TFCP2 / Fold change vs veh, TFCP2 / RFU, GMCL1 /// GMCL1P1 / Fold change vs veh, GMCL1 /// GMCL1P1 / RFU, AEBP2 / Fold change vs veh, AEBP2 / RFU, SNHG1 /// SNORD22 /// SNORD25 /// SNORD26 /// SNORD27 /// SNORD28 /// SNORD29 /// SNORD31 / Fold change vs veh, SNHG1 /// SNORD22 /// SNORD25 /// SNORD26 /// SNORD27 /// SNORD28 /// SNORD29 /// SNORD31 / Fold change (Aza/veh), C12orf56 (ProbeSet 11735607_a_at) / Fold change (ACY-1035/veh), C12orf56 (ProbeSet 11735607_a_at) / Fold change (Aza/veh), FGFR1OP (ProbeSet 11751329_s_at) / Fold change (ACY-1035/veh), FGFR1OP (ProbeSet 11751329_s_at) / Fold change (Aza/veh), VPS36 (ProbeSet 11739960_a_at) / Fold change (ACY-1035/veh), VPS36 (ProbeSet 11739960_a_at) / RFU SYPL1 (11715823_x_at) / Fold change /veh SYPL1 (11715823_x_at) / RFU IGFBP7 (11715501_s_at) / Fold change /veh IGFBP7 (11715501_s_at) / RFU REEP3 (11722064_at) / Fold change /veh REEP3 (11722064_at) / RFU IGLL1 (11728026_x_at) / Fold change /veh IGLL1 (11728026_x_at): dose or concentration left out as unconfirmed
Conditions: MV-4-11 cells, 48 hours

SMILES: Nc1ccc(-c2cccs2)cc1NC(=O)c1ccc2c(c1)cc(C1CC1)n2CCN1CCOCC1 [ACY-1035]
- RFU RNFT2 (11725882_a_at): 13.97 RFU
